# Experiment: Toxicity (mouse LD50)
# Format: in vivo
structure (smiles),measurement,value
"c1ccc(C2CN3CCSC3=N2)cc1 (stereo not shown) [levamisole, 2,3,5,6-tetrahydro-6-phenyl-imidazo[2,1-b]thiazole]",toxicity,devoid of toxicity
